In patent US20230278984A1 (Global Blood Therapeutics, Inc., priority 2020, published 2023) one finds AC50 and Emax data, which are given here for eleven molecules.

The structures appear in SMILES notation.

This test deals with T1, Human pyruvate kinase R (PKR) (Homo sapiens, UniProt P30613).
T1 construct: Human pyruvate kinase R (PKR), residues 14-574; 6x-His (N, cleaved yes); 8x-Arg (N, cleaved yes); SUMO (N, cleaved yes); host or cells: E. coli
Description: Biochemical assay for activation of pyruvate kinase R (Kinase-Glo luminescence measurement of ATP generation). To be noted: for AC50: PKR biochemical assay, 0.1 nM PKR, 0.3 mM ADP, 2 mM FBP, 0.1 mM PEP; for Emax: maximal activation level relative to the activation level achieved by the literature compound AG-348 @ 10 μM. The procedure, abridged:
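Recombinant human PKR (residues 14-574), E. coli-expressed with His-Arg-SUMO tag removed, purified by Ni-NTA, anion exchange and size exclusion. Activation measured as ATP generation via Kinase-Glo luminescence.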

T1 sequence (P30613 14-574): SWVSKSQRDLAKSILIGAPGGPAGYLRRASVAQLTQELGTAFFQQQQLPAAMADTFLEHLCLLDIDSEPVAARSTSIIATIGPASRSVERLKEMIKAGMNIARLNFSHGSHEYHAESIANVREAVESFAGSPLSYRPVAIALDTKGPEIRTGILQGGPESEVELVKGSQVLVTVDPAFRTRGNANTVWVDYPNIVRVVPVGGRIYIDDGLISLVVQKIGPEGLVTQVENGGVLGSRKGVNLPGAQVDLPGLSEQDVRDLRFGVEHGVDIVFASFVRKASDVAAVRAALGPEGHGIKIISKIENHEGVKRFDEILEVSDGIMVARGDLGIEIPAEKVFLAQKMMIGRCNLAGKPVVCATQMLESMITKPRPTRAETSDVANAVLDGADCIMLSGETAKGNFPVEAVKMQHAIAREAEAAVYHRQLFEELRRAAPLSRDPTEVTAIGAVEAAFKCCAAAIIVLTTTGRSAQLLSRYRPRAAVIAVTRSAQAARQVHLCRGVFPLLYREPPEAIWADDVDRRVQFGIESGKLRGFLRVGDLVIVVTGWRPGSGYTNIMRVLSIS

With `O=C(NCc1ncnn1-c1ccc(Cl)c(F)c1)NCc1nnnn1-c1ccc2c(c1)OC(F)(F)O2` [Compound 76, 1-{[1-(4-chloro-3-fluorophenyl)-1H-1,2,4-triazol-5-yl]methyl}-3-{[1-(2,2-difluoro-2H-1,3-benzodioxol-5-yl)-1H-1,2,3,4-tetrazol-5-yl]methyl}urea], the activity was half-maximal at 460 nM (AC50) and the Emax (as a rule, the greatest response seen or fitted, relative to the assay's reference) is 74%.

Consider `O=C(NCc1nnnn1-c1ccc(Cl)c(Cl)c1)NCc1nnnn1-c1ccc(Cl)c(Cl)c1` [Compound 60, 1,3-bis({[1-(3,4-dichlorophenyl)-1H-1,2,3,4-tetrazol-5-yl]methyl})urea], for which the activity was half-maximal at 180 nM (AC50) and the Emax came to 82%.

As to `Cc1nc(CNC(=O)NCc2ncnn2-c2ccc3ncncc3c2)n(-c2ccc(Cl)c(F)c2)n1` [Compound 127, 1-{[1-(4-chloro-3-fluorophenyl)-3-methyl-1H-1,2,4-triazol-5-yl]methyl}-3-{[1-(quinazolin-6-yl)-1H-1,2,4-triazol-5-yl]methyl}urea], half-maximal activity (AC50) was put at 47 nM and the Emax is 45%.

For the molecule `Cc1nc(CNC(=O)NCc2n[nH]c(=O)n2-c2ccc(Cl)c(F)c2)n(-c2ccc(Cl)c(F)c2)n1` [Compound 89, 1-{[1-(4-chloro-3-fluorophenyl)-3-methyl-1H-1,2,4-triazol-5-yl]methyl}-3-{[4-(4-chloro-3-fluorophenyl)-5-oxo-4,5-dihydro-1H-1,2,4-triazol-3-yl]methyl}urea], the concentration at half-maximal activity (AC50) (as a rule, the midpoint of the concentration-response curve, whichever way the signal moves) turned out to be 31 nM and the maximal response (Emax) was determined as 91%.

Regarding `CC1(C)CC(Cn2ncnc2CNC(=O)NCc2ncnn2-c2ccc(Cl)c(F)c2)CCO1` (stereo not shown) [Compound 13, 3-{[1-(4-chloro-3-fluorophenyl)-1H-1,2,4-triazol-5-yl]methyl}-1-({1-[(2,2-dimethyloxan-4-yl)methyl]-1H-1,2,4-triazol-5-yl}methyl)urea], the concentration at half-maximal activity (AC50) worked out at 1000 nM and the maximal response (Emax) amounted to 55%.

The molecule `O=C(NCc1ncnn1-c1ccc2ncccc2c1)NCc1ncnn1-c1ccc2ncccc2c1` [Compound 71, 1,3-bis({[1-(quinolin-6-yl)-1H-1,2,4-triazol-5-yl]methyl})urea] registered an AC50 of 930 nM and a maximum response (Emax) of 48%.

In turn, `O=C(NCc1nnnn1-c1cccc(Cl)c1)NCc1nnnn1-c1cccc(Cl)c1` [Compound 2, 1,3-bis({[1-(3-chlorophenyl)-1H-1,2,3,4-tetrazol-5-yl]methyl})urea] showed a half-maximal activity concentration (AC50) of 530 nM and a maximum response (Emax) of 69%.

Take `Cc1nc(CNC(=O)NCc2nc(CO)nn2-c2ccc(Cl)c(F)c2)n(-c2ccc3cccnc3c2)n1` [Compound 93, 1-{[1-(4-chloro-3-fluorophenyl)-3-(hydroxymethyl)-1H-1,2,4-triazol-5-yl]methyl}-3-{[3-methyl-1-(quinolin-7-yl)-1H-1,2,4-triazol-5-yl]methyl}urea]: the AC50 is 150 nM and the maximal effect (Emax) stood at 100%.

The molecule `O=C(NCc1ncnn1-c1ccc2cccnc2c1)NCc1nnnn1-c1ccc(Cl)c(F)c1` [Compound 80, 1-{[1-(4-chloro-3-fluorophenyl)-1H-1,2,3,4-tetrazol-5-yl]methyl}-3-{[1-(quinolin-7-yl)-1H-1,2,4-triazol-5-yl]methyl}urea] gave an AC50 of 200 nM and an Emax of 106%.

Molecule `Cc1nc(CNC(=O)NCc2ncnn2-c2cnc3ccccc3c2)n(-c2ccc(Cl)c(F)c2)n1` [Compound 126, 1-{[1-(4-chloro-3-fluorophenyl)-3-methyl-1H-1,2,4-triazol-5-yl]methyl}-3-{[1-(quinolin-3-yl)-1H-1,2,4-triazol-5-yl]methyl}urea] came in with an AC50 of 67 nM and an Emax of 84%.

Take `Cc1nc(CNC(=O)NCc2ncnn2-c2ccc3c(cnn3C)c2)n(-c2ccc(Cl)c(F)c2)n1` [Compound 51, 1-{[1-(4-chloro-3-fluorophenyl)-3-methyl-1H-1,2,4-triazol-5-yl]methyl}-3-{[1-(1-methyl-1H-indazol-5-yl)-1H-1,2,4-triazol-5-yl]methyl}urea]: the activity was half-maximal at 66 nM (AC50) and the Emax was 75%.
